Experimental findings from patent publication US11318134B2, “Benzamide compounds” (priority 2018, dated 2022) are described below.

Broadly, the Kd is the free concentration of one partner at which half of the binding sites on the other are occupied at equilibrium, for simple one-to-one binding.

Where only a bound is given, the exact number is not on record here.

One assay addresses Bcl-2 (Homo sapiens (Human), UniProt P10415). As to the kind of experiment: Bcl-2 protein family binding assay (Bcl2scan platform), Bcl-2. Conditions: BIM peptide ligand, 11-point dilution, read-out: Bc1-2 Kd (nm). The protocol: (§1) E. coli were grown to log-phase and infected with T7 phage from a frozen stock (multiplicity of infection=0.4) and incubated with shaking at 32° C. until lysis (90-150 minutes). The lysates were centrifuged (5,000×g) and filtered (0.2 μm) to remove cell debris. […] The liganded beads were blocked with excess biotin and washed with blocking buffer (SeaBlock (Pierce), 1% BSA, 0.05% Tween 20, 1 mM DTT) to remove unbound ligand and to reduce non-specific phage binding. […] Test compounds were prepared as 100× stocks in 100% DMSO. Kds were determined using an 11-point 3-fold compound dilution series with one DMSO control point. […] The compounds were then diluted directly into the assays such that the final concentration of DMSO was 0.9%. All reactions performed in polypropylene 384-well plates. Each was a final volume of 0.02 ml. […] The BCL2 concentration in the eluates was measured by qPCR. Binding constants (Kds) were calculated with a standard dose-response curve using the Hill equation:
(§2) [formula] The Hill Slope was set to −1. Curves were fitted using a non-linear least square fit with the Levenberg-Marquardt algorithm.

A further assay addresses Bcl-XL (Homo sapiens (Human), UniProt Q07817). The assay is described as follows: Bcl-2 protein family binding assay (Bcl2scan platform), Bcl-XL. The following applies: BIM peptide ligand, 11-point dilution, read-out: Bc1-XL Kd (nm). Here is the method:
as §1, §2

Another assay relates to RS4;11 cells. The assay is described as follows: RS4;11 cell proliferation assay (CellTiter-Glo). Conditions: Homo sapiens, RS4-11, 48 h, read-out: RS4;11 (nM), CTG IC50. The assay is classed as cell-based. The protocol:
Cell proliferation was measured using the CellTiter-Glo® Luminescent Cell Viability Assay. The assay involved the addition of a single reagent (CellTiter-Glo® Reagent) directly to cells cultured in serum-supplemented medium.
Each compound evaluated was prepared as a DMSO stock solution (10 mM). Compounds were tested in duplicate on each plate, with a 10-point serial dilution curve (1:3 dilution). Compound treatment (1.0 μL) was added from the compound dilution plate to the cell plate. The highest compound concentration was 10 μM (final), with a 0.1% final DMSO concentration. Plates were then incubated at 37° C., 5% CO2. After 48 h of compound treatment for RS4;11 or 72 h for NCI-H1963, cell plates were equilibrated at rt for approximately 30 mins. An equi-volume amount of CellTiter-Glo® Reagent (40 μL) was added to each well. […] Luminescence was recorded using a Envision plate reader according to CellTiter-Glo protocol. IC50 of each compound was calculated using GraphPad Prism by nonlinear regression analysis.
A general note: ATP-based viability assays read luminescence as a measure of living cells.

Bcl-2, sequence (P10415 whole entry): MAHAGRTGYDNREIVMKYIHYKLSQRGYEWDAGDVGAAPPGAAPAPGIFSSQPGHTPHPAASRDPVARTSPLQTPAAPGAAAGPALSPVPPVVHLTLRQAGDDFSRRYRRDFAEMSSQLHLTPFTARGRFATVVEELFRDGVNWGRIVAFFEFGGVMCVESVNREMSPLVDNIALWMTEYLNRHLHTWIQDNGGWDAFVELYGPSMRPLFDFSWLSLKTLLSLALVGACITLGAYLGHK
Bcl-XL, sequence (Q07817 whole entry): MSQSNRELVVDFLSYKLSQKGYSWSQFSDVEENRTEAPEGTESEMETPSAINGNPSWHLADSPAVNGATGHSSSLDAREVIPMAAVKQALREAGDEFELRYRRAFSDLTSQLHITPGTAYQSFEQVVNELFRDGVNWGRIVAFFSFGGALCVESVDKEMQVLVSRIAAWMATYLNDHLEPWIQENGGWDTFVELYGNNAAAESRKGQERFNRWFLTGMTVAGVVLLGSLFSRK

`CC1(C)CCC(CN2CCN(c3ccc(C(=O)NS(=O)(=O)c4ccc(NCC5CCOCC5)c([N+](=O)[O-])c4)c(Oc4cnc5[nH]ccc5c4)c3)CC2)=C(C23CC(Cl)(C2)C3)C1` [Example 1, 2-(1H-Pyrrolo[2,3-b]pyridin-5-yl-oxy)-4-(4-((2-(3-chlorobicyclo[1.1.1]pentan-1-yl)-4,4-dimethylcyclohex-1-en-yl)methyl)piperazin-1-yl)-N-(3-nitro-4-((tetrahydro-2H-pyran-4-yl)methylamino)phenylsulfonyl)benzamide]: the Kd is < 0.01 µM at Bcl-2 and > 0.1 µM on Bcl-XL. In addition, the IC50 in the assay on RS4;11 cells was < 100 nM.
Taken in the same sequence, the figures for `CC1(C)CCC(CN2CCN(c3ccc(C(=O)NS(=O)(=O)c4ccc(NCC5CCOCC5)c([N+](=O)[O-])c4)c(Oc4cnc5[nH]ccc5c4)c3)CC2)=C(C23CC(C)(C2)C3)C1` [Example 9, 2-(1H-pyrrolo[2,3-b]pyridin-5-yloxy)-4-(4-((4,4-dimethyl-2-(3-methylbicyclo[1.1.1]pentan-1-yl)cyclohex-1-enyl)methyl)piperazin-1-yl)-N-(3-nitro-4-((tetrahydro-2H-pyran-4-yl)methylamino)phenylsulfonyl)benzamide] were < 0.01 µM, > 0.1 µM and < 100 nM.
For the molecule `CC1(C)CCC(CN2CCN(c3ccc(C(=O)NS(=O)(=O)c4ccc(NCC5CCOCC5)c([N+](=O)[O-])c4)c(Oc4cnc5[nH]ccc5c4)c3)CC2)=C(C23CC(F)(C2)C3)C1` [Example 10, 2-(1H-pyrrolo[2,3-b]pyridin-5-yloxy)-4-(4-((2-(3-fluorobicyclo[1.1.1]pentan-1-yl)-4,4-dimethylcyclohex-1-enyl)methyl)piperazin-1-yl)-N-(3-nitro-4-((tetrahydro-2H-pyran-4-yl)methylamino)phenylsulfonyl)benzamide], the Kd on Bcl-2 was < 0.01 µM; on Bcl-XL, > 0.1 µM. Moreover, the IC50 in the assay on RS4;11 cells was < 100 nM.
Taken in the same sequence, the figures for `CC1(C)CCC(CN2CCN(c3ccc(C(=O)NS(=O)(=O)c4ccc(NCC5CC6(CCOCC6)C5)c([N+](=O)[O-])c4)c(Oc4cnc5[nH]ccc5c4)c3)CC2)=C(C23CC(C)(C2)C3)C1` [Example 11, 2-((1H-pyrrolo[2,3-b]pyridin-5-yl)oxy)-N-((4-(((7-oxaspiro[3.5]nonan-2-yl)methyl)amino)-3-nitrophenyl)sulfonyl)-4-(4-((4,4-dimethyl-2-(3-methylbicyclo[1.1.1]pentan-1-yl)cyclohex-1-en-1-yl)methyl)piperazin-1-yl)benzamide] were < 0.01 µM, > 0.1 µM and < 100 nM.
The like results for `CN1CCC(F)(CNc2ccc(S(=O)(=O)NC(=O)c3ccc(N4CCN(CC5=C(C67CC(C)(C6)C7)CC(C)(C)CC5)CC4)cc3Oc3cnc4[nH]ccc4c3)cc2[N+](=O)[O-])CC1` [Example 13, 2-((1H-pyrrolo[2,3-b]pyridin-5-yl)oxy)-4-(4-((4,4-dimethyl-2-(3-methylbicyclo[1.1.1]pentan-1-yl)cyclohex-1-en-1-yl)methyl)piperazin-1-yl)-N-((4-(((4-fluoro-1-methylpiperidin-4-yl)methyl)amino)-3-nitrophenyl)sulfonyl)benzamide] were, in that order, < 0.01 µM, > 0.1 µM and < 100 nM.
The like results for `CC1(C)CCC(CN2CCN(c3ccc(C(=O)NS(=O)(=O)c4ccc(OCC5(F)CCOCC5)c([N+](=O)[O-])c4)c(Oc4cnc5[nH]ccc5c4)c3)CC2)=C(C23CC(C)(C2)C3)C1` [Example 16, 2-((1H-pyrrolo[2,3-b]pyridin-5-yl)oxy)-4-(4-((4,4-dimethyl-2-(3-methylbicyclo[1.1.1]pentan-1-yl)cyclohex-1-en-1-yl)methyl)piperazin-1-yl)-N-((4-((4-fluorotetrahydro-2H-pyran-4-yl)methoxy)-3-nitrophenyl)sulfonyl)benzamide] were, in that order, < 0.01 µM, > 0.1 µM and < 100 nM.
As for `CN1CCOC(CNc2ccc(S(=O)(=O)NC(=O)c3ccc(N4CCN(CC5=C(C67CC(C)(C6)C7)CC(C)(C)CC5)CC4)cc3Oc3cnc4[nH]ccc4c3)cc2[N+](=O)[O-])C1` (centres unmarked) [Example 17, 2-((1H-pyrrolo[2,3-b]pyridin-5-yl)oxy)-4-(4-((4,4-dimethyl-2-(3-methylbicyclo[1.1.1]pentan-1-yl)cyclohex-1-en-1-yl)methyl)piperazin-1-yl)-N-((4-(((4-methylmorpholin-2-yl)methyl)amino)-3-nitrophenyl)sulfonyl)benzamide], the dissociation constant Kd was < 0.01 µM on Bcl-2 and 0.01 to 0.1 µM on Bcl-XL. In addition, the IC50 in the assay on RS4;11 cells was < 100 nM.
As to `CN1CCO[C@H](CNc2ccc(S(=O)(=O)NC(=O)c3ccc(N4CCN(CC5=C(C67CC(C)(C6)C7)CC(C)(C)CC5)CC4)cc3Oc3cnc4[nH]ccc4c3)cc2[N+](=O)[O-])C1` [Example 18, (R)-2-((1H-pyrrolo[2,3-b]pyridin-5-yl)oxy)-4-(4-((4,4-dimethyl-2-(3-methylbicyclo[1.1.1]pentan-1-yl)cyclohex-1-en-1-yl)methyl)piperazin-1-yl)-N-((4-(((4-methylmorpholin-2-yl)methyl)amino)-3-nitrophenyl)sulfonyl)benzamide], the IC50 with RS4;11 cells was < 100 nM.
Still for that read-out and setting: under `CN1CCO[C@@H](CNc2ccc(S(=O)(=O)NC(=O)c3ccc(N4CCN(CC5=C(C67CC(C)(C6)C7)CC(C)(C)CC5)CC4)cc3Oc3cnc4[nH]ccc4c3)cc2[N+](=O)[O-])C1` [Example 19, (S)-2-((1H-pyrrolo[2,3-b]pyridin-5-yl)oxy)-4-(4-((4,4-dimethyl-2-(3-methylbicyclo[1.1.1]pentan-1-yl)cyclohex-1-en-1-yl)methyl)piperazin-1-yl)-N-((4-(((4-methylmorpholin-2-yl)methyl)amino)-3-nitrophenyl)sulfonyl)benzamide] stands < 100 nM.
Regarding `CCC12CC(C3=C(CN4CCN(c5ccc(C(=O)NS(=O)(=O)c6ccc(NCC7CCOCC7)c([N+](=O)[O-])c6)c(Oc6cnc7[nH]ccc7c6)c5)CC4)CCC(C)(C)C3)(C1)C2` [Example 23, 2-(1H-pyrrolo[2,3-b]pyridin-5-yloxy)-4-(4-((2-(3-ethylbicyclo[1.1.1]pentan-1-yl)-4,4-dimethylcyclohex-1-enyl)methyl)piperazin-1-yl)-N-(3-nitro-4-((tetrahydro-2H-pyran-4-yl)methylamino)phenylsulfonyl)benzamide], the results for the Kd on Bcl-2 and at Bcl-XL were < 0.01 µM and > 0.1 µM, respectively. The IC50 in the assay with RS4;11 cells was < 100 nM.
With `CCC12CC(C3=C(CN4CCN(c5ccc(C(=O)NS(=O)(=O)c6ccc(NCC7(F)CCOCC7)c([N+](=O)[O-])c6)c(Oc6cnc7[nH]ccc7c6)c5)CC4)CCC(C)(C)C3)(C1)C2` [Example 25, 2-((1H-pyrrolo[2,3-b]pyridin-5-yl)oxy)-4-(4-((2-(3-ethylbicyclo[1.1.1]pentan-1-yl)-4,4-dimethylcyclohex-1-en-1-yl)methyl)piperazin-1-yl)-N-((4-(((4-fluorotetrahydro-2H-pyran-4-yl)methyl)amino)-3-nitrophenyl)sulfonyl)benzamide], the dissociation constant Kd on Bcl-2 is < 0.01 µM; at Bcl-XL, > 0.1 µM. The IC50 with RS4;11 cells was < 100 nM.
The like results for `CCC12CC(C3=C(CN4CCN(c5ccc(C(=O)NS(=O)(=O)c6ccc(OCC7(F)CCOCC7)c([N+](=O)[O-])c6)c(Oc6cnc7[nH]ccc7c6)c5)CC4)CCC(C)(C)C3)(C1)C2` [Example 26, 2-((1H-pyrrolo[2,3-b]pyridin-5-yl)oxy)-4-(4-((2-(3-ethylbicyclo[1.1.1]pentan-1-yl)-4,4-dimethylcyclohex-1-en-1-yl)methyl)piperazin-1-yl)-N-((4-((4-fluorotetrahydro-2H-pyran-4-yl)methoxy)-3-nitrophenyl)sulfonyl)benzamide] were, in that order, < 0.01 µM, > 0.1 µM and < 100 nM.
Taken in the same sequence, the figures for `CCC12CC(C3=C(CN4CCN(c5ccc(C(=O)NS(=O)(=O)c6ccc(NC[C@H]7CC[C@](C)(O)CC7)c([N+](=O)[O-])c6)c(Oc6cnc7[nH]ccc7c6)c5)CC4)CCC(C)(C)C3)(C1)C2` [Example 27, 2-((1H-pyrrolo[2,3-b]pyridin-5-yl)oxy)-4-(4-((2-(3-ethylbicyclo[1.1.1]pentan-1-yl)-4,4-dimethylcyclohex-1-en-1-yl)methyl)piperazin-1-yl)-N-((4-((((1r,4r)-4-hydroxy-4-methylcyclohexyl)methyl)amino)-3-nitrophenyl)sulfonyl)benzamide] were < 0.01 µM, > 0.1 µM and < 100 nM.
